The METLIN SMRT retention time set (Domingo-Almenara et al. 2019)

Test: gradient 5% acetonitrile 3 min, to 50% in 2 min, to 85% in 15 min, held 3 min, 100 µL/min
Settings: column: Zorbax Extend-C18 2.1 x 50 mm; eluents: water / acetonitrile, 0.1% formic acid
In short: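 Over 3 months, pure standards in mixtures of ~100 molecules were run by HPLC coupled to a quadrupole time-of-flight mass spectrometer in positive and negative ionization mode. The column was a Zorbax Extend-C18 (2.1 × 50 mm, 1.8 μm) at 100 μL/min, eluted with water and acetonitrile each holding 0.1% formic acid, with 40 μL dead and 900 μL dwell volumes. Retention time was determined from adduct peaks chosen by software and checked manually.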

| Structure (SMILES) | RP-LC retention time [s] |
| --- | --- |
| Cc1cccc(OCCc2noc(C3CN(Cc4ccc(C)s4)C3)n2)c1 | 761 |
| CC(Oc1ccc(Cl)cc1Cl)C(=O)NCCn1ncccc1=O (centres undefined) | 722 |
| COc1ccccc1NC(=O)Cn1c(=O)cc(-c2nc(C3CC3)no2)c2ccccc21 | 1280 |
| COCCNC(=O)Cn1c(=O)c2cccn2c2ccccc21 | 655 |
| CSc1nc2cc(Oc3cccc(Cl)c3Cl)c(Cl)cc2[nH]1 | 1080 |
| CCc1ccc2nc(Nc3ncc4c(n3)CCCC4=O)nc(C)c2c1 | 650 |
| O=C1N=C(N2CCOCC2)S/C1=C/c1ccc(-c2ccccc2Br)o1 | 872 |
| CCOc1ccc(C(=O)N2C[C@H](c3nc(-c4ccccc4)no3)[C@@H](C)C2)cc1 | 1070 |
| Clc1ccccc1-c1nc(N2CCCC2)c2ccccc2n1 | 696 |
| Cc1ccn2cc(C(=O)NCc3cccc(F)c3)nc2c1 | 645 |
| CCc1ccc(N2C(=O)CN(S(C)(=O)=O)CC2(C)C(=O)NCc2ccc(C)cc2)cc1 (centres undefined) | 898 |
| Cc1nc(-c2ccccc2F)sc1C(=O)NC(C)C | 888 |
| CCNC(=O)c1sc(Nc2ccc(Cl)cn2)nc1C | 726 |
| CCN(CC)CCCNc1ncnc2c1cnn2-c1cccc(Cl)c1 | 648 |
| CCN1C(=O)c2ccccc2Oc2ccc(C(=O)NCc3ccc(C)o3)cc21 | 910 |
| O=C(NC1CC(=O)N(Cc2ccccc2)C1)c1ccco1 (centres undefined) | 667 |
| COc1ccc2c(c1)C1(CCN(S(=O)(=O)c3ccc(C#N)cc3)C1)C(=O)N2C (centres undefined) | 880 |
| CCOc1ccc(-c2noc(CN3C(=O)COc4ccc(S(=O)(=O)CC)cc43)n2)cc1OC | 873 |
| COc1ccc(C(=O)NC2CCN(c3cc(-c4ccc(Cl)cc4)[nH]n3)C2)c(OC)c1 (centres undefined) | 754 |
| O=C(Cn1c(=O)n(C2CCCCC2)c2ncccc21)NCc1ccccc1 | 895 |
| CCOC(=O)CCC(=O)Nc1cc(C)nn1-c1nc(-c2ccc(F)cc2)cs1 | 1100 |
| COCCNC(=O)Cc1c(C)n(C)c2nc(-c3ccccc3)nn2c1=O | 633 |
| O=C(Cn1cccc1-c1nc(-c2ccccc2)no1)N1CCc2ccccc21 | 1110 |
| COc1ccc(/C=C/C(=O)Oc2cc(O)cc(O)c2)cc1 | 763 |
| O=C(N1CC(Oc2ccc(-c3nc(-c4ccccc4)no3)cc2)C1)C1(c2ccccc2)CC1 | 1310 |
| Cc1cc2c(cc1C)N(C(=O)CCl)CC(=O)N2 | 745 |

| Structure (SMILES) | RP-LC retention time [s] |
| --- | --- |
| COc1ccc(Cl)cc1S(=O)(=O)NCCc1cn(CC(C)C)c2ncccc12 | 987 |
| COc1ccc(NC(=O)Cn2nc3cc(-c4ccccc4)nc(C)n3c2=O)cc1OC | 830 |
| COC(=O)c1ccc(NC(=O)N2CC(Oc3cccc(-c4nc(C)no4)c3)C2)cc1 | 883 |
| CCOC(=O)c1c(C)c(C(=O)CN(CC2CCCO2)C(=O)c2ccc(Cl)cc2)c(C)n1C (centres undefined) | 987 |
| O=C(NCc1ccc(F)cc1F)c1c(O)c2cccnc2n(-c2cccc(F)c2)c1=O | 1190 |
| O=C(Cc1cccs1)Nc1ccc(OCc2nnc(-c3ccccc3)o2)cc1 | 879 |
| CNC(=O)Nc1ccc(C2(C(=O)NCc3ccc(F)cc3Cl)CCC2)cc1 | 784 |
| COc1ccc(-c2cc(C(=O)Nc3ccc(F)c(F)c3)sn2)cc1 | 1180 |
| Cc1ccc(C(=O)NCc2cnoc2-c2ccc(F)cc2)cn1 | 665 |
| COc1ccc(NC(=O)C2=C(C)NC(=O)NC2c2ccccc2Br)c(OC)c1 (centres undefined) | 698 |
| CC1(C(=O)N2CC(F)(F)C[C@H]2c2nnc(-c3ccccc3)o2)CC1 | 834 |
| CCn1cc(S(=O)(=O)N2CC(F)(F)C[C@H]2COc2cccnc2)cn1 | 636 |
| Cn1nccc1-c1cccc(-c2noc(-c3cccnc3)n2)c1 | 876 |
| CCC(c1cccs1)N1C(=O)[C@H]2CN(S(=O)(=O)c3cc(C)ccc3C)C[C@H]2C1=O (some centres undefined) | 1090 |
| O=C(Cn1ccn2nc(-c3ccc(F)cc3)c(CO)c2c1=O)NCCC1=CCCCC1 | 900 |
| O=C(NCc1cccnc1)c1cn2ccnc(-c3ccccc3)c2n1 | 599 |
| Cc1oc(-c2[nH]ncc2C(=O)N(C)C)cc1S(=O)(=O)NCc1cccnc1 | 559 |
| O=C(Nc1ccc2c(c1)CN(S(=O)(=O)c1ccccc1)CC2)c1cc(-c2ccco2)on1 | 1010 |
| Cc1noc(C)c1CNC(=O)c1cc(-c2ccccc2)n[nH]1 | 706 |
| CCN1C(=O)C2(CCN(S(=O)(=O)c3cc(C)ccc3C)CC2)c2ccccc21 | 1110 |
| Cc1cc2nn(CC(=O)NCc3ccccc3)c(=O)n2c(Nc2ccccc2C)n1 | 990 |
| COc1ccc(NC(=O)c2csc3c2CCCC3)cc1 | 894 |
| Cc1noc(C)c1-c1ccc(S(=O)(=O)Nc2ccc3c(c2)OCCO3)cc1 | 880 |
| CN(C)CCCn1c(C2CC(=O)N(c3ccc(F)cc3)C2)nc2ccccc21 (centres undefined) | 590 |
| O=C(CCc1csc(NC(=O)Nc2ccccc2)n1)Nc1nc2ccccc2s1 | 864 |
| Cc1ccccc1CNS(=O)(=O)c1c[nH]c2ncccc12 | 730 |

Second part, the molecule after the results:

| RP-LC retention time [s] | Structure (SMILES) |
| --- | --- |
| 595 | COc1ccc(CC(=O)N2CCC(Nc3ncnc4c3CCC4)C2)cc1 (centres undefined) |
| 727 | CCn1c(=O)c(N2CCN(C(=O)NCCCOC)CC2)nc2ccccc21 |
| 752 | COc1cc(CNC(=O)C23CCC=C2N(C2CCCC2)C(=O)CC3)cc(OC)c1 (centres undefined) |
| 835 | O=C(c1ccc(S(=O)(=O)c2ccc(Br)cc2)nc1)N1CCN(c2ncccn2)CC1 |
| 616 | O=C(NC1CCCC1)C1CCCN(C(=O)c2cc(-c3ccccn3)n[nH]2)C1 (centres undefined) |
| 942 | CCC(C)N(CC(=O)N1CCc2sccc2C1COc1ccccc1C)C(=O)COC (centres undefined) |
| 776 | COc1ccc(NC(=O)N2CCC3(C2)C(=O)N(C)c2ccccc23)c(OC)c1 (centres undefined) |
| 598 | CCCNC(=O)C(=O)NCC(c1ccc2c(c1)CCCN2C)N1CCCCC1 (centres undefined) |
| 656 | O=C(Nc1nc(C(=O)N2CCN(C(=O)c3ccco3)CC2)co1)c1ccsc1 |
| 722 | Cn1cc(S(=O)(=O)N2CCC(C(=O)NCc3ccc(F)cc3)CC2)cc1C(=O)N1CCCC1 |
| 696 | COc1ccc(-n2nc3c(N4CCCC(C(=O)NC5CCCC5)C4)nnc(C)c3c2C)cc1 (centres undefined) |
| 860 | CCc1nc(-c2csc(S(=O)(=O)N3CCC(C(=O)NCc4cccs4)CC3)c2)no1 |
| 875 | Cn1ncc2c3ccccc3n(CC(=O)N3CCN(c4ccc(F)cc4)CC3)c2c1=O |
| 845 | CCN1C(=O)c2cc(C(=O)NCCCc3ccccc3)nn2CC1(C)C(=O)NC1CCCC1 (centres undefined) |
| 575 | CC1CCN(C(=O)c2cc3c(s2)CCC(C(=O)N2CCN(C)CC2)C3)CC1 (centres undefined) |
| 850 | COc1ccc(S(=O)(=O)N2CC3CN(C(=O)C4CCCCC4)CC(C2)O3)cc1 |
| 637 | CC(C)C(=O)N1CCc2cc(C(N)=O)ccc21 |
| 557 | Cc1cnc(-c2ccncc2)n1C1CCCN(S(=O)(=O)c2cn(C)cn2)C1 (centres undefined) |
| 819 | Cc1cccc(NC(=O)C2CCN(S(=O)(=O)c3cc(C(=O)N4CCCC4)cs3)CC2)c1 |

| RP-LC retention time [s] | Structure (SMILES) |
| --- | --- |
| 638 | CCN1c2cc(C(=O)NC3CCN(Cc4ccccc4)CC3)ccc2C(=O)N2CCCCC21 (centres undefined) |
| 821 | Cn1ccc2cc(S(=O)(=O)N3CCC(C(=O)N4CCN(c5ncccn5)CC4)CC3)ccc21 |
| 782 | O=C(C1=CN(c2cccc(Cl)c2)c2ccccc2S1(=O)=O)N1CCOCC1 |
| 755 | CC1CCCCN1CCNS(=O)(=O)c1ccccc1-c1nc(-c2ccc(F)cc2)no1 (centres undefined) |
| 575 | O=C(CCOc1ccc(F)cc1)N1CCN(Cc2ccccc2)CC1 |
| 718 | CC(C)NC(=O)CCC(=O)N1CCCn2nc(-c3cn(C)c4ccccc34)cc21 |
| 611 | CC(C)N1CCN(S(=O)(=O)c2ccc(-c3nnc(C4CC4)o3)o2)CC1 |
| 570 | CN1CCN(CC2(O)CCC3(CCN(C(=O)c4ccsc4)CC3)CC2)CC1 |
| 595 | COc1ccc(CN2CCN(C(=O)CCC(=O)N3CCCn4nc(C)cc43)CC2)c(OC)c1OC |
| 729 | COc1ccc(NC(=O)C2CCN(C(=O)C3Sc4ccccc4NC3=O)CC2)cc1 (centres undefined) |
| 839 | CCC1Oc2ccc(S(=O)(=O)N3CCC(C(=O)NCc4ccccc4OC)CC3)cc2NC1=O (centres undefined) |
| 636 | O=C(CN1CCN(c2ccc(F)c(F)c2)C1=O)NC1CCS(=O)(=O)C1 (centres undefined) |
| 572 | CCNC(=O)c1n[nH]c2c1CN(Cc1sccc1C)CC2 |
| 611 | CN1CCN(C(c2cccnc2)c2c(NC(=O)c3ccco3)sc3c2CCCC3)CC1 (centres undefined) |
| 657 | CCOc1ccccc1NC(=O)c1cn2c(n1)CCCC2 |
| 596 | COCc1noc(C2CCCCN2C(=O)c2cnccn2)n1 (centres undefined) |
| 768 | COc1cc(C(=O)N2CCCN(c3cc(-c4ccc(Br)cc4)[nH]n3)CC2)cc(OC)c1OC |
| 943 | O=C(c1ccoc1)N1CCN(S(=O)(=O)c2cc(-c3noc(C4CCC4)n3)cs2)CC1 |
